Measured values from US12714106B2 (Bayer Aktiengesellschaft, priority 2020, dated 2026).

Tests used:
Assay type in all cases: in vivo
[1] = tested on: ABUTH (Abutilon theophrasti); experiment: Post-emergence greenhouse herbicide test, visual rating; conditions: for ABUTH Expected: Colby formula; for ABUTH synerg.: observed minus expected; for ABUTH Observed: post-emergence, 21 days after application
Protocol: (§1) Seeds of grass and broadleaf weeds were sown in pots (diameter: 7 cm) filled with a sandy loam soil. Following germination the plants were grown under optimal conditions up to a growth stage of BBCH 11 to 14 depending on species.
(§2) The applications were performed by post emergence treatments on the planted pots using a spray volume of 300 L water per hectare. The herbicides were applied alone and in combination as described.
(§3) The trial was conducted in the greenhouse ensuring optimal growing conditions.
(§4) The herbicidal effects were assessed 21 days following application by visual ratings comparing treated and untreated plants (0%=no effect to 100%=complete die-off).
(§5) The compounds of the formula (Ia), (Ib) and (I) were formulated as WP (wettable powder) formulation.
(§6) • BBCH=the BBCH code provides information about the morphological development stage of a plant. Officially, the abbreviation denotes the Biologische Bundesanstalt, Bundessortenamt and Chemische Industrie [Federal Biological Institute for Agriculture and Forestry, Federal Office for Crop Plant Varieties and Chemical Industry]. The range of BBCH 00-10 denotes the germination stages of the seeds until surface penetration. The range of BBCH 11-25 denotes the leaf development stages until stocking (corresponding to the number of tillers or side-shoots). In the Trials, the Following Biotypes of Broad-Leaved Weeds and Weed Grasses were Used: • ALOMY—sensitive (Alopecurus myosuroides) sensitive to customary herbicidally active compounds. • ALOMY_R (resistant) (Alopecurus myosuroides) resistant to herbicidally active compounds of the HRAC groups A and B; population mixture of field origin having increased metabolic resistance (IMR) and some target site resistance (TSR). • LOLRI—sensitive (Lolium rigidum) sensitive to customary herbicidally active compounds. • LOLRI_R (resistant) (Lolium rigidum) resistant to herbicidally active compounds of the HRAC groups A and B; population mixture of field origin having increased metabolic resistance (IMR) and some target site resistance (TSR). • AMAPA_R (resistant) (Amaranthus palmeri) resistant to herbicidally active compounds of the HRAC groups A and B; population mixture of field origin having increased metabolic resistance (IMR) and some target site resistance (TSR). • CHRVI (Chloris virgate) feather finger grass • KCHSC (Kochia scoparia) Mexican burning bush • MATIN (Matricaria inodora) false chamomile • POLCO (Polygonum convolvulus) black knotweed • ABUTH (Abutilon theophrasti) china jute • AMAPA (Amaranthus palmeri) palmer amaranth • BIDPI (Bidens pilosa) common blackjack • CHEAL (Chenopodium album) common lambsquarters • EPHHL (Euphorbia heterophylla) wild spurge • XANST (Xanthium strumarium) large cocklebur • EMEAU (Emex australis)—Cathead • GALAP (Gallium aparine)—Cleaver
(§7) The synergistic herbicidal activity was calculated using Colby's formula (cf. S. R. Colby; Weeds 15 (1967), 20-22): […]

[2] = tested on: AMAPA-R (resistant) (Amaranthus palmeri); experiment: as above; conditions: 25 g/ha (Ia) + 25 g/ha (Ib)
Protocol: as §1, §2, §3, §4, §5, §6, §7

BID PI (Bidens pilosa) = experiment: as above; conditions: 25 g/ha (Ia) + 25 g/ha (Ib)
Protocol: as §1, §2, §3, §4, §5, §6, §7

[3] = tested on: CHEAL (Chenopodium album); experiment: as above; conditions: 25 g/ha (Ia) + 25 g/ha (Ib)
Protocol: as §1, §2, §3, §4, §5, §6, §7

CHRVI (Chloris virgate) = experiment: as above; conditions: 12.5 g/ha
Protocol: as §1, §2, §3, §4, §5, §6, §7

EMEAU (Emex australis) = experiment: as above; conditions: 12.5 g/ha (row as printed)
Protocol: as §1, §2, §3, §4, §5, §6, §7

[4] = tested on: EPHHL (Euphorbia heterophylla); experiment: as above; conditions: for EPHHL Expected: Colby formula; for EPHHL synerg.: observed minus expected; for EPHHL Observed: post-emergence, 21 days after application
Protocol: as §1, §2, §3, §4, §5, §6, §7

GALAP (Gallium aparine) = experiment: as above; conditions: 50 g/ha
Protocol: as §1, §2, §3, §4, §5, §6, §7

KCHSC (Kochia scoparia) = experiment: as above; conditions: 12.5 g/ha
Protocol: as §1, §2, §3, §4, §5, §6, §7

[5] = tested on: LOLRI - sensitive (Lolium rigidum); experiment: as above; conditions: for LOLRI Expected: Colby formula; for LOLRI Synergism: observed minus expected; for LOLRI Observed: post-emergence, 21 days after application
Protocol: as §1, §2, §3, §4, §5, §6, §7

[6] = tested on: LOLRI_R (resistant) (Lolium rigidum); experiment: as above; conditions: for LOLRI_R Expected: Colby formula; for LOLRI_R Synergism: observed minus expected; for LOLRI_R Observed: post-emergence, 21 days after application
Protocol: as §1, §2, §3, §4, §5, §6, §7

[7] = tested on: MATIN (Matricaria inodora); experiment: as above; conditions: for MATIN Expected: Colby formula; for MATIN Synergism: observed minus expected; for MATIN Observed: post-emergence, 21 days after application
Protocol: as §1, §2, §3, §4, §5, §6, §7

[8] = tested on: POLCO (Polygonum convolvulus); experiment: as above; conditions: 12.5 g/ha
Protocol: as §1, §2, §3, §4, §5, §6, §7

[9] = tested on: XANST (Xanthium strumarium); experiment: as above; conditions: for XANST Expected: Colby formula; for XANST synerg.: observed minus expected; for XANST Observed: post-emergence, 21 days after application
Protocol: as §1, §2, §3, §4, §5, §6, §7

[10] = tested on: grass and broadleaf weeds; experiment: Comparative testing of crystalline (I), (Ia), (Ib), summary of tables 3 to 6; conditions: see tables 3 to 6
Protocol: as §1, §2, §3, §4, §5, §7

[11] = post-emergence, 21 days after application

## C=C[C@]1(C(=O)N[C@H]2CO[C@@H](C(=O)OC)C2)CC(c2cc(F)cc(F)c2)=NO1 (relative stereo) [(I), methyl(2R*,4R*)-4-[[(5S)-3-(3,5-difluorophenyl)-5-vinyl-4H-isoxazole-5-carbonyl]amino]tetrahydrofuran-2-carboxylate]
[1]; 25 g/ha (Ia) + 25 g/ha (Ib)
  ABUTH Expected: 51%
  ABUTH synerg.: 25%
  ABUTH Observed: 75%
[1]; 50 g/ha (Ia) + 50 g/ha (Ib)
  ABUTH Expected: 68%
  ABUTH synerg.: 7%
  ABUTH Observed: 75%
[2]; Colby formula
  AMAPA-R Expected: 51%
[2]; observed minus expected
  AMAPA-R synerg.: 14%
[2]; [11]
  AMAPA-R Observed: 65%
BID PI (Bidens pilosa); Colby formula
  BID PI Expected: 37%
BID PI (Bidens pilosa); observed minus expected
  BID PI synerg.: 28%
BID PI (Bidens pilosa); [11]
  BID PI Observed: 65%
[3]; Colby formula
  CHEAL Expected: 76%
[3]; observed minus expected
  CHEAL synerg.: 19%
[3]; [11]
  CHEAL Observed: 95%
CHRVI (Chloris virgate); Colby formula
  CHRVI Expected: 48%
CHRVI (Chloris virgate); observed minus expected
  CHRVI Synergism: 47%
CHRVI (Chloris virgate); [11]
  CHRVI Observed: 95%
EMEAU (Emex australis); Colby formula
  EMEAU Expected: 89%
EMEAU (Emex australis); observed minus expected
  EMEAU Synergism: 8%
EMEAU (Emex australis); [11]
  EMEAU Observed: 97%
[4]; 25 g/ha (Ia) + 25 g/ha (Ib)
  EPHHL Expected: 55%
  EPHHL synerg.: 11%
  EPHHL Observed: 65%
[4]; 50 g/ha (Ia) + 50 g/ha (Ib)
  EPHHL Expected: 58%
  EPHHL synerg.: 12%
  EPHHL Observed: 70%
GALAP (Gallium aparine); Colby formula
  GALAP Expected: 84%
GALAP (Gallium aparine); observed minus expected
  GALAP Synergism: 6%
GALAP (Gallium aparine); [11]
  GALAP Observed: 90%
KCHSC (Kochia scoparia); Colby formula
  KCHSC Expected: 82%
KCHSC (Kochia scoparia); observed minus expected
  KCHSC Synergism: 13%
KCHSC (Kochia scoparia); [11]
  KCHSC Observed: 95%
[5]; 6.25 g/ha
  LOLRI Expected: 20%
  LOLRI Synergism: 55%
  LOLRI Observed: 75%
[5]; 12.5 g/ha
  LOLRI Expected: 90%
  LOLRI Synergism: 5%
  LOLRI Observed: 95%
[6]; 6.25 g/ha
  LOLRI_R Expected: 15%
  LOLRI_R Synergism: 15%
  LOLRI_R Observed: 30%
[6]; 12.5 g/ha
  LOLRI_R Expected: 20%
  LOLRI_R Synergism: 20%
  LOLRI_R Observed: 40%
[6]; 25 g/ha
  LOLRI_R Expected: 30%
  LOLRI_R Synergism: 10%
  LOLRI_R Observed: 40%
[7]; 12.5 g/ha
  MATIN Expected: 0%
  MATIN Synergism: 15%
  MATIN Observed: 15%
[7]; 25 g/ha
  MATIN Expected: 0%
  MATIN Synergism: 15%
  MATIN Observed: 15%
[7]; 50 g/ha
  MATIN Expected: 0%
  MATIN Synergism: 20%
  MATIN Observed: 20%
[8]; Colby formula
  POLCO Expected: 91%
[8]; observed minus expected
  POLCO Synergism: 4%
[8]; [11]
  POLCO Observed: 95%
[9]; 25 g/ha (Ia) + 25 g/ha (Ib)
  XANST Expected: 0%
  XANST synerg.: 35%
  XANST Observed: 35%
[9]; 50 g/ha (Ia) + 50 g/ha (Ib)
  XANST Expected: 28%
  XANST synerg.: 7%
  XANST Observed: 35%
[9]; 100 g/ha (Ia) + 100 g/ha (Ib)
  XANST Expected: 36%
  XANST synerg.: 29%
  XANST Observed: 65%
[10]; (I) vs (Ia), (Ia) vs (Ib)
  herbicidal activity compared with the other crystalline forms: superior in herbicidal activity
[10]
  synergistic effect of the physical mixture of (Ia) and (Ib): synergistic effect
